Laboratory results published in PubChem BioAssay AID248 (DTP/NCI, 2004).
“And” between values parts separate entries of the source, which are not always exact repeats. Equal entries are not always repeated. Inconclusive results and toxic doses are left out. Cut-off read from the data, not from the text of the source: active = T/C of 150% or more; inactive = T/C below 125%.

System: L1210 leukemia ip in BDF1 mice, survival T/C
Assay: NCI In Vivo Anticancer Drug Screen. Data for tumor model L1210 Leukemia (intraperitoneal) in B6D2F1 (BDF1) mice
Conditions: endpoint: mean survival time, higher = longer survival
How it was run: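 Tumor was transplanted into mice, which were then dosed with test compound or vehicle alone. Survival was recorded for each group, and the treated figure was expressed relative to the control figure.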

[1] = dose: 100.0 mg/kg/injection, schedule: Q04DX003 (ip), vehicle: Klucel (hydroxypropylcellulose) (HPC)
[2] = dose: 200.0 mg/kg/injection, schedule: Q04DX003 (ip), vehicle: Klucel (hydroxypropylcellulose) (HPC)
[3] = dose: 400.0 mg/kg/injection, schedule: Q04DX003 (ip), vehicle: Klucel (hydroxypropylcellulose) (HPC)
[4] = dose: 10.0 mg/kg/injection, schedule: Q01DX001 (ip), vehicle: saline
[5] = dose: 20.0 mg/kg/injection, schedule: Q01DX001 (ip), vehicle: saline
[6] = dose: 40.0 mg/kg/injection, schedule: Q01DX001 (ip), vehicle: saline
[7] = dose: 50.0 mg/kg/injection, schedule: Q01DX009 (ip), vehicle: Klucel (hydroxypropylcellulose) (HPC)
[8] = dose: 100.0 mg/kg/injection, schedule: Q01DX009 (ip), vehicle: Klucel (hydroxypropylcellulose) (HPC)
[9] = dose: 200.0 mg/kg/injection, schedule: Q01DX009 (ip), vehicle: Klucel (hydroxypropylcellulose) (HPC)
[10] = dose: 100.0 mg/kg/injection, schedule: Q01DX001 (ip), vehicle: carboxymethylcellulose (CMC)
[11] = dose: 200.0 mg/kg/injection, schedule: Q01DX001 (ip), vehicle: carboxymethylcellulose (CMC)
[12] = dose: 400.0 mg/kg/injection, schedule: Q01DX001 (ip), vehicle: carboxymethylcellulose (CMC)
[13] = dose: 100.0 mg/kg/injection, schedule: Q04DX003 (ip), vehicle: saline
[14] = dose: 200.0 mg/kg/injection, schedule: Q04DX003 (ip), vehicle: saline
[15] = dose: 400.0 mg/kg/injection, schedule: Q04DX003 (ip), vehicle: saline
[16] = dose: 100.0 mg/kg/injection, schedule: Q01DX009 (ip), vehicle: saline with Tween-80

Measured: T/C

CC(C)C(/C=N/N=C(N)N)=N\N=C(N)N
inactive: dose: 15.0 mg/kg/injection, schedule: Q01DX Z (ip), vehicle: methylcellulose (MC) 94 % of control | dose: 30.0 mg/kg/injection, schedule: Q01DX Z (ip), vehicle: methylcellulose (MC) 105 % of control | dose: 60.0 mg/kg/injection, schedule: Q01DX Z (ip), vehicle: methylcellulose (MC) 94 % of control | dose: 120.0 mg/kg/injection, schedule: Q01DX Z (ip), vehicle: methylcellulose (MC) 96 % of control

O=P(NC12CC3CC(CC(C3)C1)C2)(Oc1ccccc1)Oc1ccccc1
inactive: [1] 101 % of control | [2] 97 % of control | [3] 87 % of control

C[N+](C)(Cc1ccccc1)Cc1ccccc1
inactive: dose: 5.0 mg/kg/injection, schedule: Q01DX001 (ip), vehicle: saline 96 % of control | [4] 98 % of control | [5] 102 % of control | [6] 102 % of control | dose: 75.0 mg/kg/injection, schedule: Q01DX001 (ip), vehicle: saline 105 % of control | dose: 80.0 mg/kg/injection, schedule: Q01DX001 (ip), vehicle: saline 104 % of control

Cc1ccc(NC(=O)Nc2ccccc2C(N)=O)c([N+](=O)[O-])c1
inactive: [1] 90 % of control | [2] 87 % of control | [3] 90 % of control

O=C(C(c1ccccn1)=P(c1ccccc1)(c1ccccc1)c1ccccc1)c1ccc([N+](=O)[O-])cc1
inactive: [7] 88 % of control | [8] 91 % of control | [9] 98 % of control

CC(C)c1ccc(/C=C/C(=O)O)cc1
inactive: dose: 50.0 mg/kg/injection, schedule: Q01DX001 (ip), vehicle: carboxymethylcellulose (CMC) 108 % of control | [10] 97 % of control | [11] 92 % of control | [12] 101 % of control

N#CCc1ccc(NN)cc1
inactive: dose: 75.0 mg/kg/injection, schedule: Q01DX009 (ip), vehicle: other 93 % of control | dose: 150.0 mg/kg/injection, schedule: Q01DX009 (ip), vehicle: other 95 % of control

Cc1cc(S(=O)(=O)c2cc(C)c(O)c(C(=O)O)c2)cc(C(=O)O)c1O
inactive: dose: 100.0 mg/kg/injection, schedule: Q04DX002 (ip), vehicle: carboxymethylcellulose (CMC) 95 % of control | dose: 200.0 mg/kg/injection, schedule: Q04DX002 (ip), vehicle: carboxymethylcellulose (CMC) 98 % of control

CC(C)NC(=S)Nc1ccccc1
inactive: dose: 75.0 mg/kg/injection, schedule: Q01DX001 (ip), vehicle: other 102 % of control

N/N=C/c1ccccc1[N+](=O)[O-]
inactive: dose: 100.0 mg/kg/injection, schedule: Q01DX001 (ip), vehicle: other 97 % of control | dose: 200.0 mg/kg/injection, schedule: Q01DX001 (ip), vehicle: other 95 % of control | dose: 400.0 mg/kg/injection, schedule: Q01DX001 (ip), vehicle: other 111 % of control

C#CC1(OC(O)C(Cl)(Cl)Cl)CCCCC1 (stereo not drawn)
inactive: [13] 103 % of control | [14] 106 % of control | [15] 103 % of control

C[N+]1(C)CCOCC1
inactive: [4] 99 % of control | [5] 100 % of control | [6] 96 % of control

Cc1ccc(NC(=O)c2ccccc2)cc1
inactive: dose: 100.0 mg/kg/injection, schedule: Q04DX002 (ip), vehicle: Klucel (hydroxypropylcellulose) (HPC) 95 % of control | dose: 200.0 mg/kg/injection, schedule: Q04DX002 (ip), vehicle: Klucel (hydroxypropylcellulose) (HPC) 95 % of control

Cc1ccc([N+](=O)[O-])cc1NC(=O)Nc1cccc2c(O)cccc12
inactive: [8] 86 % of control | [9] 100 % of control

CC(=O)OCc1ccc[nH]c1=O
inactive: [13] 104 % of control | [14] 98 % of control | [15] 104 % of control

O=C(CCl)Oc1c(Cl)c(Cl)c(Cl)c(Cl)c1Cl
inactive: dose: 6.25 mg/kg/injection, schedule: Q04DX003 (ip), vehicle: alcohol 100 % of control | dose: 12.5 mg/kg/injection, schedule: Q04DX003 (ip), vehicle: alcohol 98 % of control | dose: 25.0 mg/kg/injection, schedule: Q04DX003 (ip), vehicle: alcohol 98 % of control | dose: 100.0 mg/kg/injection, schedule: Q04DX003 (ip), vehicle: alcohol 111 % of control

Oc1c(Br)cc(Br)cc1C=NCC1CCC(CN=Cc2cc(Br)cc(Br)c2O)CC1 (stereo not drawn)
inactive: [16] 92 % of control | dose: 100.0 mg/kg/injection, schedule: Q04DX002 (ip), vehicle: saline with Tween-80 110 % of control and 90 % of control | dose: 200.0 mg/kg/injection, schedule: Q04DX002 (ip), vehicle: saline with Tween-80 96 % of control and 90 % of control | dose: 400.0 mg/kg/injection, schedule: Q01DX009 (ip), vehicle: saline with Tween-80 92 % of control and 94 % of control | dose: 400.0 mg/kg/injection, schedule: Q04DX002 (ip), vehicle: saline with Tween-80 106 % of control and 90 % of control

Cc1cccc(N2C(=O)CSC2=S)c1
inactive: dose: 25.0 mg/kg/injection, schedule: Q01DX009 (ip), vehicle: saline with Tween-80 90 % of control | [16] 92 % of control

CCOC(=O)C(=Cc1csc2ccccc12)C(=O)OCC
inactive: [10] 92 % of control | [11] 94 % of control | [12] 94 % of control

CC1OC(=O)C(=O)C1(C)C (stereo not drawn)
inactive: dose: 32.0 mg/kg/injection, schedule: Q01DX001 (ip), vehicle: carboxymethylcellulose (CMC) 100 % of control | dose: 62.5 mg/kg/injection, schedule: Q01DX001 (ip), vehicle: carboxymethylcellulose (CMC) 102 % of control | dose: 125.0 mg/kg/injection, schedule: Q01DX001 (ip), vehicle: carboxymethylcellulose (CMC) 93 % of control | dose: 250.0 mg/kg/injection, schedule: Q01DX001 (ip), vehicle: carboxymethylcellulose (CMC) 100 % of control | dose: 500.0 mg/kg/injection, schedule: Q01DX001 (ip), vehicle: carboxymethylcellulose (CMC) 107 % of control

ClCC[n+]1csc2ccccc21
inactive: dose: 10.0 mg/kg/injection, schedule: Q01DX Z (ip), vehicle: saline 91 % of control | dose: 30.0 mg/kg/injection, schedule: Q01DX Z (ip), vehicle: saline 94 % of control | dose: 100.0 mg/kg/injection, schedule: Q01DX Z (ip), vehicle: saline 96 % of control | dose: 300.0 mg/kg/injection, schedule: Q01DX Z (ip), vehicle: saline 110 % of control

CCOP(=O)(Nc1cc2c(cc1Cl)-c1ccccc1C2=O)OCC
inactive: [10] 99 % of control | [11] 89 % of control | [12] 91 % of control

CC1CCCCC1OC(=O)CCN1CC1 (stereo not drawn)
inactive: dose: 3.0 mg/kg/injection, schedule: Q01DX009 (ip), vehicle: Klucel (hydroxypropylcellulose) (HPC) 94 % of control | dose: 6.0 mg/kg/injection, schedule: Q01DX009 (ip), vehicle: Klucel (hydroxypropylcellulose) (HPC) 94 % of control | dose: 12.0 mg/kg/injection, schedule: Q01DX009 (ip), vehicle: Klucel (hydroxypropylcellulose) (HPC) 100 % of control | dose: 25.0 mg/kg/injection, schedule: Q01DX009 (ip), vehicle: Klucel (hydroxypropylcellulose) (HPC) 94 % of control and 102 % of control | [7] 109 % of control | dose: 50.0 mg/kg/injection, schedule: Q04DX003 (ip), vehicle: Klucel (hydroxypropylcellulose) (HPC) 108 % of control | [1] 97 % of control and 108 % of control | [2] 104 % of control
